For five compounds, logD and Ki results are on record in ChEMBL document CHEMBL5344430, “Targeting the Translocator Protein (18 kDa) in Cardiac Diseases: State of the Art and Future Opportunities” (J Med Chem, 2024).

Series [1] can be described thus: physchem. The settings on record: buffer, pH 7.4.
Description: Lipophilicity, logD of compound at pH 7.4 by HPLC analysis
Series [2] in a line: Lipophilicity, logD of the compound at pH 7.4. It counts as physicochemical. The conditions noted are these: buffer.
The target of series [3] is T1, Translocator protein (Homo sapiens, UniProt P30536).
Description: Binding affinity to human mitochondrial TSPO
A short description of series [4]: physchem. The settings on record: buffer, pH 6.8.
Description: Lipophilicity, logD of compound at pH 6.8
Series [5] concerns the target Translocator protein (Rattus norvegicus, UniProt P16257).
Description: Binding affinity to rat TSPO receptor assessed as inhibition constant
The next series has as its target Albumin (Macaca fascicularis, UniProt A2V9Z4).
Series [6] deals with T1, Translocator protein. This is another data set of the same source.
Description: Binding affinity to human TSPO assessed as inhibition constant

T1 sequence (P30536 whole entry): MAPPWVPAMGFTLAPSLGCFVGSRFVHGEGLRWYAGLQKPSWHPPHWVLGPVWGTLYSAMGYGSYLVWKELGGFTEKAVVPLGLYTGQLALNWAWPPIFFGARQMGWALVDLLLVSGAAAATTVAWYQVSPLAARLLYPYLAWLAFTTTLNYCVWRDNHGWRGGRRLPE
Chain of Translocator protein (Rattus norvegicus, UniProt P16257) (P16257 whole entry, looked up): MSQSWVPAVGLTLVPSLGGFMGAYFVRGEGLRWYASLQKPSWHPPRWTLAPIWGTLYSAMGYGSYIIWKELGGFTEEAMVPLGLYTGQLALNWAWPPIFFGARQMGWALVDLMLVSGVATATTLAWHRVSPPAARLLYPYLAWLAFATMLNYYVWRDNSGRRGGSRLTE
Chain of Albumin (A2V9Z4 whole entry): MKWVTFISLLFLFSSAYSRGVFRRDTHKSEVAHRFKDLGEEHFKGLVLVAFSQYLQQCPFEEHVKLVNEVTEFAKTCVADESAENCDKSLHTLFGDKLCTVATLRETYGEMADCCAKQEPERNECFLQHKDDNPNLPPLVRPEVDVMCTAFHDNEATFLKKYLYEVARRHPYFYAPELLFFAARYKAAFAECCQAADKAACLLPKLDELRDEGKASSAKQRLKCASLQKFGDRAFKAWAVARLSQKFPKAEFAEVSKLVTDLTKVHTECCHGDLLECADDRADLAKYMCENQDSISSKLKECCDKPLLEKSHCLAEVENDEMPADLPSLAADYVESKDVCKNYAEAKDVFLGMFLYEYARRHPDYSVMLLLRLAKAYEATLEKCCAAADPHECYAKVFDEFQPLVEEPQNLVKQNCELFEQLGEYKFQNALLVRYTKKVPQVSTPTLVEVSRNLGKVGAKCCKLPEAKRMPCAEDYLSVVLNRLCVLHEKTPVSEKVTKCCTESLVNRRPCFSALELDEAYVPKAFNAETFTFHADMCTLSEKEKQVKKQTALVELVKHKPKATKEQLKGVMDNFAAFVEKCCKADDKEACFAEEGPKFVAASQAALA
Description for Albumin: Binding affinity to monkey albumin

A word on the logD: it is lipophilicity at a set pH, counting ionised and neutral species. A lower logD goes with a more hydrophilic compound. Consider `CC[C@@H](C)N([11CH3])C(=O)c1cc2ccccc2c(-c2ccccc2Cl)n1`, for which the log distribution coefficient (logD) in “physchem [1]” was found to be 3.97.

Usually Ki stands for a dissociation constant, usually derived from enzyme kinetics or from competition with a known ligand. High values mean lower affinity, low ones higher affinity. `CC(=O)N(Cc1ccccc1O[11CH3])c1cnccc1Oc1ccccc1` displayed a log distribution coefficient (logD) in series [2] of 3.01. Further, the inhibition constant Ki on Translocator protein [3] worked out at 2.2 nM.

Turning to `COc1ccc(OCC[18F])c(CN(C(C)=O)c2cc(F)ccc2Oc2ccccc2)c1`, in the series “physchem [1]”, the logD was 3.81.

`COc1ccccc1CN(C(=O)C[18F])c1cnccc1Oc1ccccc1` gave a logD in “physchem [4]” of 4.01. The Ki on Translocator protein [5] was 0.18 nM; at Albumin it was 0.3 nM; on Translocator protein [6], 0.997 nM.

In the series “physchem [1]”, `CCCN(CCC)C(=O)Cc1c(-c2ccc(OCC[18F])cc2)nc2c(Cl)cc(Cl)cn12` had a logD of 3.
